The text below walks through data of publication PMC11002876, “KcsA-Kv1.x chimeras with complete ligand-binding sites provide improved predictivity for screening selective Kv1.x blockers” (The Journal of Biological Chemistry, 2024).

The structures appear in SMILES notation. Residue numbers refer to the chain shown, from its start.

In experiment [1] the target is T1, KcsA-Kv1.3 T-only chimera (Streptomyces lividans, UniProt P0A334, A54D/A57S/G53D/G56T/I60S/L59F/Q58G/R52A/R64D/T61S/Y62I).
T1 construct: made in house; host or cells: E. coli XL1-Blue (pQE30)
T1 sequence (P0A334 1-160 R52A/G53D/A54D/G56T/A57S/Q58G/L59F/I60S/T61S/Y62I/R64D): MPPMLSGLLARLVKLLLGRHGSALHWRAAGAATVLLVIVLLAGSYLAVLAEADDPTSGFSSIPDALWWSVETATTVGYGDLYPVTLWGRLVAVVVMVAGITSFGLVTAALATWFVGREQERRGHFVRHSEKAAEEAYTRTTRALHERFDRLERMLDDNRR
The experiment can be described thus: Phage-binding competition assay, KcsA-Kv1.3 T-only. On the set-up: species or system human Kv1.3 turret in Streptomyces lividans KcsA. How it is done: (§1) Phage stock solutions were diluted to working concentration with phage resuspension buffer supplemented with 2 mM DDM. For protein immobilization, the following amounts were used in a final volume of 50 μl/well: wt KcsA, 0.1 μg; KcsA-Kv1.1 T-only, 0.005 μg; KcsA-Kv1.1 T+F, 0.02 μg; KcsA-Kv1.2 T-only, 0.01 μg; KcsA-Kv1.2 T+F, 0.1 μg; KcsA-Kv1.3 T-only, 0.01 μg; and KcsA-Kv1.3 T+F, 0.1 μg. Protein samples were diluted in 50 μl of storage buffer (20 mM Tris pH8.0, 300 mM KCl, 2 mM DDM) and were added to the designated wells of a Pierce Clear, 96-Well Nickel Coated Plate (15442, Thermo Fisher Scientific), then incubated for 1 h at room temperature on a horizontal shaker at 130 rpm. The plate was blocked for 1 h at room temperature with 180 μl/well TBS-BSA supplemented with 1 mM DDM. Following blocking, the wells were washed 4× with washing buffer (300 μl TBS-Tween, 0.1% v/v) using a Wellwash Versa microplate washer (Thermo Fisher Scientific); then 50 μl phage solution (in TBS-BSA-Tween, 0.1% v/v, 2 mM DDM) at determined phage concentration was added to the wells and incubated for 1 h at room temperature on a horizontal shaker. The plate was washed 4× with washing buffer, then 50 μl anti-M13 IgG HRP (MA5-36125, Invitrogen) diluted to 1:2500 in TBS-Tween (0.1% v/v) was added to the wells and incubated for 1 h at room temperature. The plate was washed again 4× with 300 μl/well washing buffer. Finally, 50 μl/well 1-Step Ultra TMB-ELISA solution (34028, Thermo Fisher Scientific) was added to the wells, and the developing signal was stopped with 50 μl 1M HCl after 5 to 10 min. The light absorbance signal was read at 450 nm with Byonoy absorbance 96 plate reader (Byonoy GmbH).
(§2) For protein immobilization, the following amounts were used in a final volume of 50 μl/well: KcsA-Kv1.1 T-only, 0.005 μg; KcsA-Kv1.1 T+F, 0.01 μg; KcsA-Kv1.2 T-only, 0.025 μg; KcsA-Kv1.2 T+F, 0.0125 μg; KcsA-Kv1.3 T-only, 0.01 μg; and KcsA-Kv1.3 T+F, 0.1 μg. Protein samples were diluted in storage buffer. Binding of given concentrations of relevant ligand-displaying phages quantified by light absorbance ([…]) were investigated in a similar manner as in phage ELISA-binding assay, while different concentrations of competing toxin test substances were applied simultaneously. The results were converted to percent inhibitions (percent displacement) of the indicator phage binding, and relative affinities of the tested toxins were assessed by plotting percent displacements against log concentrations and determining half maximal inhibitory concentrations (IC50) by sigmoidal curve fitting using “Sigmoidal dose-response (variable slope) with least squares method” algorithm in GraphPad Prism 8 using the following equation: Y=Bottom+Top−Bottom/1+10^(LogEC50−×)⋅HillSlope

The target of a further experiment is T2, KcsA-Kv1.3 T+F chimera (Streptomyces lividans, UniProt P0A334, A54D/A57S/G53D/G56T/I60S/L59F/L81M/Q58G/R52A/R64D/T61S/Y62I/Y82H).
T2 construct: made in house; host or cells: E. coli C41(DE3) (pET45b)
T2 sequence (P0A334 1-160 R52A/G53D/A54D/G56T/A57S/Q58G/L59F/I60S/T61S/Y62I/R64D/L81M/Y82H): T1 sequence (P0A334 1-160 R52A/G53D/A54D/G56T/A57S/Q58G/L59F/I60S/T61S/Y62I/R64D) with L81M, Y82H
The experiment in a line: Phage-binding competition assay, KcsA-Kv1.3 T+F. On the set-up: species or system human Kv1.3 turret and filter in Streptomyces lividans KcsA. How it is done: as §1, §2

Experiment [2] concerns the target T3, KcsA-Kv1.2 T+F chimera (Streptomyces lividans, UniProt P0A334, A54E/A57S/G53D/G56E/I60P/L59F/L81M/P55R/R52A/R64D/T61S/V84T/Y62I/Y82V).
T3 sequence (P0A334 1-160 R52A/G53D/A54E/P55R/G56E/A57S/L59F/I60P/T61S/Y62I/R64D/L81M/Y82V/V84T): T1 sequence (P0A334 1-160 R52A/G53D/A54D/G56T/A57S/Q58G/L59F/I60S/T61S/Y62I/R64D) with D54E, P55R, T56E, G58Q, S60P, L81M, Y82V, V84T
The experiment can be described thus: Phage-binding competition assay, KcsA-Kv1.2 T+F. On the set-up: species or system human Kv1.2 turret and filter in Streptomyces lividans KcsA. The following applies: displacement of HgTx1-phage; KcsA-Kv1.2 T+F 0.0125 μg/well on nickel-coated plate; mean ± SD (n = 3); read-out: IC50, T+F chimera (Kv1.2). How it is done:
as §1, §2

The target of experiment [3] is T4, KcsA-Kv1.2 T+F chimera (Streptomyces lividans, UniProt P0A334, R52A/G53D/A54E/P55R/G56E/A57S/L59F/I60P/T61S/Y62I/R64D/L81M/Y82V/V84T).
T4 sequence (P0A334 1-160 R52A/G53D/A54E/P55R/G56E/A57S/L59F/I60P/T61S/Y62I/R64D/L81M/Y82V/V84T): T1 sequence (P0A334 1-160 R52A/G53D/A54D/G56T/A57S/Q58G/L59F/I60S/T61S/Y62I/R64D) with D54E, P55R, T56E, G58Q, S60P, L81M, Y82V, V84T
The experiment can be described thus: Phage-binding competition assay, KcsA-Kv1.2 T+F. On the set-up: species or system human Kv1.2 turret and filter in Streptomyces lividans KcsA. The settings on record: rank by competition IC50 among MTX, ShK, KTX1. On the procedure:
as §1, §2

The mark [4] stands for this setting: rank by competition IC50 among Vm24, HgTx1, KTX1.

`CC[C@H](C)[C@H](NC(=O)[C@H](CCC(=O)O)NC(=O)[C@@H](NC(=O)CN)C(C)C)C(=O)N[C@@H](CC(N)=O)C(=O)N[C@H](C(=O)N[C@@H](CCCCN)C(=O)N[C@H]1CSSC[C@@H]2NC(=O)[C@H](CCCCN)NC(=O)CNC(=O)[C@H](Cc3ccccc3)NC(=O)[C@H](CCCNC(=N)N)NC(=O)[C@H](CCSC)NC(=O)CNC(=O)[C@H](C)NC(=O)[C@H](CC(=O)O)NC(=O)[C@H](CCCCN)NC(=O)[C@@H]3CSSC[C@@H](C(=O)N[C@H](C(=O)N4CCC[C@H]4C(=O)N[C@@H](CCCCN)C(=O)O)[C@@H](C)O)NC(=O)[C@H](Cc4c[nH]cn4)NC(=O)[C@H](CSSC[C@H](NC(=O)[C@H](CCC(N)=O)NC(=O)[C@@H]4CCCN4C(=O)[C@H](CO)NC(=O)CNC(=O)[C@H](CO)NC1=O)C(=O)N[C@@H](CC(C)C)C(=O)N[C@@H](CCCCN)C(=O)N1CCC[C@H]1C(=O)N3)NC(=O)[C@H](CCCCN)NC(=O)[C@H](CCCNC(=N)N)NC(=O)[C@H](CC(N)=O)NC(=O)[C@H](CCSC)NC2=O)C(C)C` [KTX1, Kaliotoxin-1]: the IC50 (in general, the concentration needed to halve the response being measured) in experiment [1] (HgTx1-phage competition, T-only KcsA-Kv1.3, value given in figure, sigmoidal fit to means of three replicates, read-out: IC50 (Fig. 6E)) came out at 0.416 nM; on KcsA-Kv1.3 T+F chimera (displacement of HgTx1-phage, KcsA-Kv1.3 T+F 0.1 μg/well on nickel-coated plate, phage ELISA absorbance, mean ± SD (n = 3), read-out: IC50, T+F chimera (Kv1.3)), 98.2 nM; at KcsA-Kv1.2 T+F chimera [2], 205 nM. In addition, in experiment [1] (setting [4]), the “Rank, T-only chimera (Kv1.3)” value is reported as 1. Also, the “rank order of affinities, competition, KcsA-Kv1.3 T+F” value at KcsA-Kv1.3 T+F chimera (HgTx1-phage competition, Fig. 6F) was “Vm24 > HgTx1 > KTX1”. The “Rank, T+F chimera (Kv1.3)” value at KcsA-Kv1.3 T+F chimera (setting [4]) is 3. The “Rank, T+F chimera (Kv1.2)” value at KcsA-Kv1.2 T+F chimera [3] is listed as 3.
